Measurements taken from patent publication US20250276957A1, “CRYSTALLINE FORMS OF AN IL-17 INHIBITOR” (Novartis AG, priority 2022, published 2025).

Tests used:
Human IL-17A x IL-17RA = target: T1, Human IL-17A x IL-17RA (Homo sapiens, UniProt Q16552); conditions: biotinylated human IL-17A 5 nM, AF647-labeled human IL-17RA 30 nM; read-out: IL17AA FRET/IL17Rawt IC50; cited from earlier work
T1 sequence (Q16552 24-155): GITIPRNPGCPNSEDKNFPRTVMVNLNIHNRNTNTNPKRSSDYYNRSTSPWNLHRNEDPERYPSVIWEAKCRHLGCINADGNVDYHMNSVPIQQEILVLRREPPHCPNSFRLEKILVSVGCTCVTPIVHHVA

[1] = Dynamic vapor sorption (DVS) and stability at ambient temperature and humidity; assay type: physicochemical; conditions: water loss occurs quickly during handling
Source text: Due to the unstable nature of hydrate HA at ambient temperature and humidity, water loss occurs quickly during handling of the samples and the high water content observed by DVS analysis was not seen in DSC or TGA analysis. This water loss behavior is considered to explain the different DSC and TGA results for the two hydrate HA samples.

stability at ambient temperature and humidity [1] | SMILES | IC50 (Human IL-17A x IL-17RA) [nM]
– | Cc1cc[n+]([O-])c(C)c1-c1ccc(NC(=O)[C@@H](NC(=O)c2ccnn2C)[C@H]2CCCc3ccccc32)cc1 [2,4-dimethyl-3-(4-((S)-2-(1-methyl-1H-pyrazole-5-carboxamido)-2-((S)-1,2,3,4-tetrahydronaphthalen-1-yl)acetamido)phenyl)pyridine 1-oxide] | 8
unstable | Cc1cc[n+]([O-])c(C)c1-c1ccc(NC(=O)[C@@H](NC(=O)c2ccnn2C)[C@H]2CCCc3ccccc32)cc1 [hydrate HA, 2,4-dimethyl-3-(4-((S)-2-(1-methyl-1H-pyrazole-5-carboxamido)-2-((S)-1,2,3,4-tetrahydronaphthalen-1-yl)acetamido)phenyl)pyridine 1-oxide] | –
